Literature values as cited in patent publication US20090203732A1, “Thiazolones for Use as P13 Kinase Inhibitors” (priority 2006, published 2009).
pIC50: −log10 of the molar value. Read-outs that look alike come from different tables or passages of the source.

Experiments:
CK2 protein kinase = CK2 protein kinase (Homo sapiens, UniProt P68400)
CK2 protein kinase, sequence (P68400 whole entry): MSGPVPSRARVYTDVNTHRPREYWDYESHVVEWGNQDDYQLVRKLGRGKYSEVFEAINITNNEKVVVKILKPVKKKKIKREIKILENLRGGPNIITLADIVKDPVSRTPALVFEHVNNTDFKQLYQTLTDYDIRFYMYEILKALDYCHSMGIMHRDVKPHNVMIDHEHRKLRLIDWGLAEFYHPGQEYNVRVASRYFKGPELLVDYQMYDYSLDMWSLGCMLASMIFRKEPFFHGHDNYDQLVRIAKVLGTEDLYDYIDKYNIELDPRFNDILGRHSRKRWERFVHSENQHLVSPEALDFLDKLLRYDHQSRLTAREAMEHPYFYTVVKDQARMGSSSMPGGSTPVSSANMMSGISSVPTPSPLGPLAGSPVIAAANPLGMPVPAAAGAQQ

Structure (SMILES) | pIC50 (Class I PI3-kinases; each of the Class I PI3-kinases, Fruman et al. 1998, read-out: IC50 against each of these PI3-kinases) | pIC50 (CK2 protein kinase) | pIC50 (Class I PI3-kinases; each of the four members of Class I PI3-kinases, read-out: IC50 against each of the various Class I PI3-kinases)
O=c1cc(N2CCOCC2)oc2c(-c3ccccc3)cccc12 [LY294002] | 4.70 to 4.82 | 5.00 to 5.30 | 
COC[C@H]1OC(=O)c2coc3c2[C@@]1(C)C1=C(C3=O)[C@@H]2CCC(=O)[C@@]2(C)C[C@H]1OC(C)=O [wortmannin] |  |  | 8.00 to 9.00
